Where two headings read alike, the source gives them in different places.
Columns and labels:
myointimal thickening = settings: animal models; cited from earlier work
[1] = tested on: rabbit red blood cell ghosts; assay: Binding of anticoagulant conjugate to rabbit red blood cell ghosts; settings: 24 h, 37° C.
Procedure: Ghosts were then washed extensively and placed in phosphate buffered saline with lmM EDTA and 5% BSA for 24 h at 37° C. Samples were agitated and a 50 μl aliquot removed from each sample and placed in 200 μl of Triton X-100® in a microtiter plate well (representingtotal suspension fluorescence). The original samples were centrifuged for 10 minutes and a 50 μl sample of the ghost supernatant removed and placed in 200 μl of Triton X-100® (representing free fluorescence in the aqueous phase only). The fluorescence of all samples was determined on a fluorometric microtiter plate reader. Bound fluorescence was determined by subtraction of free from total after correction for background fluorescence from unstained ghosts; the percent free and bound fluorescence was determined by dividing the bound and free fluorescence by total fluorescence, respectively and multiplying by 100.

[2] = tested on: rabbit hind limb (femoral arterial bed), substance P receptors; assay: Vascular response in rabbit blood perfused hind limb preparation; assay type: in vivo
Excerpt: The in vivo receptor pharmacology of the compound produced in Example 3d., above, was studied in a rabbit blood perfused hind limb preparation similar to that described by U. Forstermann et al., J. Pharmacol. Exp. Ther., 234: 1055-61 (1987). Blood from a pentobarbital anesthetized, artificially ventilated rabbit was withdrawn from a cannulated carotid artery, passed within medical grade silastic tubing through a constant speed roller pump, and directed to a cannulated femoral artery. Distal perfusion pressure in the femoral arterial bed was measured (in mm Hg) by means of a micropressure transducer (Millar) passed down the perfusion tubing so as to lie just beyond the tip of the femoral catheter. Initially, pump speed was adjusted so that distal perfusion pressure approximated systemic mean arterial blood pressure after which blood flow was kept constant for the remainder of each experiment. Changes in resistance then varied directly as distal perfusion pressure in a manner similar to that described by Ohm's law, such that:
Vascular Resistance=Perfusion Pressure Blood Flow
Thus, by maintaining blood flow constant for the duration of each experiment, changes in distal perfusion pressure directly reflected vascular resistance such that a decrease in pressure signifies vasodilation and an increase in pressure signifies vasoconstriction. Direct injection into the perfusion circuit could thus be used to assess the vascular biology and pharmacology of substances believed to exert actions on in vivo vascular smooth muscle tone.

[3] = Excerpt: The HPLC system used comprised a Waters Model 600E solvent delivery system with W600E gradient controller, U6K injector and Model 990 photodiode array detector. Chromatography conditions were as follows: Column: Waters Nova-Pak (phenyl, 4 μm, 3.9 mm×15 cm); Mobile phase: Solvent A=Water:Methanol:Acetonitrile:PIC A reagent (Waters) (395:25:80:4), Solvent B=Water:Methanol: Acetonitrile:PIC A reagent (225:25:250:4), Solvent C=Methanol:Water:PIC A reagent (490:15:4). Gradient conditions: 100% (A) to 60%:40% (A:B) over 20 minutes then to 100% (C) over 10 minutes followed by 100% (C) for 40 minutes. Flow rate: 2 mL/min. Detection: photodiode array from 240-575 nm.
The rate of acid hydrolysis of hydrazone conjugate (19) to produce 7-N-(5-oxopentanoyl) deacetyl colchicine was studied by HPLC at 3 different pH's.
Buffer solutions were prepared according to the procedures described by Gomori, "Methods in Enzymology", 16:138 (1955). HPLC conditions and retention times were the same as described above.
Compound solutions to be studied were prepared by adding 50 μl of hydrazone conjugate solution (1 mg/ml of methanol) to a screw capped vial (1 ml) containing citrate phosphate buffer (200 μl) of the desired pH. The vials were kept closed and the solutions were analysed by HPLC (350 nm detection) for conjugate (19) remaining and 7-N-(5-oxopentanoyl) deacetyl colchicine produced at 24 h and 48 h. Each hplc injection was […].

A10 cells = assay: Antiproliferative activity on A10 cells after one 10 minute application; assay type: cell-based, rat; settings: for Cell count: 10 μM, 10 minute application
Procedure: To determine the antiproliferative action of the compounds of invention, in vitro studies were performed using A10 cells, a clonal cell line originally derived from the thoracic aorta of embryonic rats, that proliferate as myoblasts and develop into cells which phenotypically resemble smooth muscle cells (B. Kimes and B. Brandt, Exptl. Cell Res. 98:349 (1976). Typically, twelve-well plates were seeded with 2500-10,000 A10 cells/cm^2 in Dulbecco's Modified Eagles Medium (DMEM) with 10% fetal calf serum (FCS) and allowed to adhere and stabilize for 24 hours at 37° C. Test substances were then prepared in the required concentrations in appropriate cell binding media and, after aspirating the plating medium, applied to the individual wells at 37° C. for a period of only 10 minutes. The treatments were then aspirated, the wells washed 4 times with non-treatment containing medium and then placed in non-treatment containing DMEM with 10% FCS for the duration of the study. At various times after treatment application, triplicate wells were aspirated, the aspirate saved, and the wells treated with 0.25 ml of 0.25% trypsin to release the adherent cells. The enzymatic action of trypsin on the cells was stopped by addition of excess protein (1.75 ml DMEM+10% FCS), the aspirate returned to the wells, and an aliquot of the resultant cell suspension counted in a Coulter Counter (Model ZM with Sampling Stand II). Cell count was normalized to cells per square centimeter of growing area (surface area of well bottom).

[4] = tested on: lumenal surface of the femoral arteries; assay: Retention at intravascular site; assay type: in vivo, rabbit
Procedure: To determine whether the compounds of the invention will remain at an intravascular site once applied experiments were performed wherein ^125 I-substituted lipophilic cyanine, prepared as described in Example 2 (compound 12, Reaction Scheme 2) was applied to the lumenal surface of the femoral arteries of anesthetized rabbits. The femoral artery was surgically isolated and a small, proximal side branch was cannulated with a short length of PE10 tubing. A 1 cm arterial segment surrounding the side branch was occluded and 20-50μl of a solution containing ^125 I-substituted compound 12 was administered through the cannula to the occluded section and allowed to remain for 5-10 min. The ^125 I-substituted compound was then withdrawn along with the cannula, the side branch was permanently tied, the femoral artery occlusion removed to allow the return of blood flow, and the femoral incision was closed. ^125 I-radioactivity was then monitored at selected times over the next 3 weeks with a Ludium Model 2200 Scaler Ratemeter and a Model 44-17 2 inch crystal with windows optimized for the detection of ^125 I.

[5] = labeling 10 μM (compound 7), 20 μM (conjugate, FITC-heparin)

CN(C/C=C/C#CC(C)(C)C)Cc1cccc2ccccc12 [Terbinafine]
Myointimal thickening (myointimal thickening): reduction of myointimal thickening

CCCCCCCCCCCCCCCCCCCCCC[N+]1=C(C=CC=C2N(CCCCCCCCCCCCCC)c3ccc(CNC=O)cc3C2(C)C)C(C)(C)c2ccccc21 [Compound 7, 1'-docosanyl-5(N-formylaminomethyl)-1-tetradecyl-3,3,3',3'tetramethylindocarbocyanine iodide]
% Bound ([1]; 5% BSA): 94.96%
% Free ([1]; 5% BSA): 5.04%
Fluorescence intensity, supernatant [1, 5]: 73.69
Fluorescence intensity, suspension [1, 5]: 1439.00

CC(C)NCC(O)c1ccc(O)c(O)c1 (stereo not drawn) [isoproterenol, reference compound]
Effect of antagonist [D-Pro^2,D-Trp^7.9]-substance P on the response ([2]; during infusion of antagonist): not antagonized by the SP antagonist
Hind-limb perfusion pressure response ([2]; local injection, no antagonist): dose related decrease in perfusion pressure

CCCCCCCCCCCCCCCCCCCCCCN1C(=CC=CC2=[N+](CCCCCCCCCCCCCC)c3ccc(CNC(=O)CCCC(=O)NN=CCCCC(=O)N[C@H]4CCc5cc(OC)c(OC)c(OC)c5-c5ccc(OC)c(=O)cc54)cc3C2(C)C)C(C)(C)c2ccccc21 [Compound 19, 7-N(5-oxopentanoyl) deacetyl colchicine Lipophilic Cyanine Hydrazone Conjugate]
Free colchicine hydrolysis product detected by HPLC ([3]; pH 4.21, 5.74, 7.35): the expected aidehyde, compound 18
Cleavage of (19) to produce (18) ([3]; pH 4.21, 24 hours): 78%
Cleavage of (19) to produce (18) ([3]; pH 4.21, 48 hours): 100%
Cleavage of (19) to produce (18) ([3]; pH 5.74, 24 hours): 45%
Cleavage of (19) to produce (18) ([3]; pH 5.74, 48 hours): 100%
Cleavage of (19) to produce (18) ([3]; pH 7.35, 24 hours): 36%
Cleavage of (19) to produce (18) ([3]; pH 7.35, 48 hours): 77%
Cell count (A10 cells; day 0): 2291.12 cells per square centimeter
Cell count (A10 cells; day 1): 2625.33 cells per square centimeter
Cell count (A10 cells; day 2): 2369.45 cells per square centimeter
Cell count (A10 cells; day 3): 2206.27 cells per square centimeter
Cell count (A10 cells; day 6): 8800.26 cells per square centimeter
Cell count (A10 cells; day 7): 10895.65 cells per square centimeter
Cell-associated fluorescence (A10 cells; flow cytometry): significant cell-associated fluorescence

CCCCCCCCCCCCCCCCCCCCCCN1C(=CC=CC2=[N+](CCCCCCCCCCCCCC)c3ccccc3C2(C)C)C(C)(C)c2cc([125I])ccc21 [Compound 12, N-docosanyl-N'-tetradecyl-5-iodo-3,3,3',3'-tetramethylindocarbocyanine chloride]
Applied material (radioactivity) remaining within the artery ([4]; after first 24 hour, mean±sem, n=4): 34.0±10.9%
Elimination half-life after the first 24 hours ([4]; after first 24 hours): 365.8 ± 69.4 h
Initial elimination half-life ([4]; first 24 hour): 18.5 ± 6.96 h
Time detectable after application ([4]; rabbit, in vivo): at least 3 weeks

interferon-gamma
Myointimal thickening (myointimal thickening): reduction of myointimal thickening

CC(C)[C@@H]1NC(=O)[C@H](CCCCN)NC(=O)[C@@H](Cc2c[nH]c3ccccc23)NC(=O)[C@H](Cc2ccc(O)cc2)NC(=O)[C@@H](NC(=O)[C@H](N)Cc2ccc3ccccc3c2)CSSC[C@@H](C(=O)N[C@H](C(N)=O)[C@@H](C)O)NC1=O [Angiopeptin]
Myointimal thickening (myointimal thickening): reduction of myointimal thickening
